Data on two molecules can be found in paper PMC2747306 (Structure (London, England : 1993), 2009).

By Kd is commonly meant the equilibrium constant for the complex coming apart. A high value points to lower affinity. In general, stoichiometry N refers to a count of units in the complex or per binding partner.

The target in one data set is FimX^full-length (Pseudomonas aeruginosa, UniProt Q9HUK6). Put plainly: isothermal titration calorimetry. The format is binding. Background: ITC needs no label: the signal is the heat of the interaction.
A further data set addresses FimX^EAL (Pseudomonas aeruginosa, UniProt Q9HUK6). Put plainly: isothermal titration calorimetry. The format is binding.
The data set “AUC” concerns the molecule itself. Put plainly: AUC.

`Nc1nc2c(ncn2[C@@H]2O[C@@H]3CO[P@](=O)(O)O[C@H]4[C@@H](O)[C@H](n5cnc6c(=O)[nH]c(N)nc65)O[C@@H]4CO[P@](=O)(O)O[C@H]3[C@H]2O)c(=O)[nH]1` [c-di-GMP]: the values for the Kd on FimX^full-length and on FimX^EAL were 0.125 µM and 0.104 µM, respectively.

B1: FimX^ΔEAL (residues 1-431: N-terminal response receiver, PAS and GGDEF domains) (domain or fragment)
chain: MAIEKKTIRLLILEDSQNEAERLVSLFRNAGHATRVHRLTSPEDLAETLQQSWDLLIAAPTSECLEPGEALATLRRQSRDIPFIQLVADNSSDAITDALMLGAQDALPQGEDERLVLVANRELAGLAERRARRAAELALREAEKRCQLLLDSSVDAITYVHDGMHIYANRSYMALFGYEDAEELEGLPVIDLIASCDQGAFKDFLKGYQNDQRQTELVCTGVKLDGQEFKARISLSAATYDGEPCIQVVIRGEVDNAELEEKLREVSSQDPVTGLYNRSHFLDLMDAAVQQAVTARKPSTLAYIHLNGYPSLQADHGLSGIDLLLGQLAGLMREQFGEEADLARFGDSIFAALFKGKTPEQAQAALQRLLKKVENHLFELNGRSAQATLSIGVAGLDEKTAKAQDVMNRAHRCADDAARKGGSQIKQYNPA
As for B1, in the data set “AUC”, the “stoichiometry N” value was determined as 2.
